From patent US20120122843A1, “Compounds and Their Use for Treatment of Amyloid Beta-Related Diseases” (ASTRAZENECA AB, priority 2010, published 2012)

Tested on: Aβ42
Assay: Aβ42 release from HEK cells stably expressing APPswe (MSD electrochemiluminescence)
Format: cell-based, Human
Conditions: 4-6 h incubation with test compound, Aβ42 secreted to cell medium
Method: The level of activity of the compounds on Aβ formation was tested using the following method:
Compounds were diluted in 100% DMSO and stored at […] prior to use. Human Embryonic Kidney (HEK) cell line stably expressing APP with the Swedish mutation (APPswe) were cultured using Dulbecco's Modified Eagles medium (DMEM) supplied with […] glucose, Na-pyruvate and GlutaMAX with 10% FBS, 100 U/ml penicillin-streptomycin (PEST) respectively, 1× non-essential amino acids (NEAA), […] Hepes, 100 μg/ml Zeocine. Cells at about 80% confluence were washed with PBS, detached from culture flasks using 1× Trypsin/EDTA diluted in PBS, re-suspended in cell media and plated in 384-well poly-d-lysine coated cell culture plates at about 10000-15000 cells/well, in 25 μL cell media. Optionally, cryo-preserved cells (frozen and stored at −140° C. in 90% cell media and 10% DMSO) were thawed, washed and plated as above. Next the cells were incubated for 15-24 h at 37° C. and 5% CO2, after which cell medium was changed. Fresh medium containing test compound diluted ×200 from prepared compound plate was added to the cells before further incubation for 4-6 hours at 37° C. and 5% CO2. After incubation with test compound the amount of Aβ peptides, including Aβ42, Aβ40, Aβ39, Aβ38 and Aβ37, as well as total Aβ levels, secreted to cell medium was analyzed using the electrochemiluminescence assay technology from Meso Scale Discovery (MSD), in combination with specific antibodies raised against the different Aβ peptides. Aβ42, Aβ40 and Aβ38 antibodies were purchased from MSD and Aβ37 and Aβ39 were made in house. Total Aβ was measured using a combination of 6E10 and 4G8 anti Aβ antibodies from MSD. Potential cytotoxic effects of the compounds were usually assayed by measuring the ATP content (ViaLight) from cell lysate.

[1] = Homo sapiens, HEK293, HEK cells expressing APPswe

| SMILES | IC50 [1] | IC50 (HEK cells expressing APPswe) |
| --- | --- | --- |
| COc1nc(Nc2ccc3c(n2)OC(CC(F)(F)F)CN(C)C3)ccc1-c1ccc(=O)n(C)c1 (single isomer, unassigned) [Example 43, 5-(2-Methoxy-6-(4-methyl-2-(2,2,2-trifluoroethyl)-2,3,4,5-tetrahydropyrido[3,2-f][1,4]oxazepin-8-ylamino)pyridin-3-yl)-1-methylpyridin-2(1H)-one] | 493 nM |  |
| CN1Cc2ccc(Nc3ccc(-c4cnn(C)c4)cn3)nc2O[C@H](c2ccccc2)C1 [Example 15, (R)-4-Methyl-N-(5-(1-methyl-1H-pyrazol-4-yl)pyridin-2-yl)-2-phenyl-2,3,4,5-tetrahydropyrido[3,2-f][1,4]oxazepin-8-amine] | 137 nM |  |
| COc1nc(Nc2ccc3c(n2)OC(c2ncccc2C)CN(C)C3)ccc1-c1cnn(C)c1 (stereo not shown) [Example 16, N-(6-Methoxy-5-(1-methyl-1H-pyrazol-4-yl)pyridin-2-yl)-4-methyl-2-(3-methylpyridin-2-yl)-2,3,4,5-tetrahydropyrido[3,2-f][1,4]oxazepin-8-amine] | 305 nM |  |
| COc1nc(Nc2ccc3c(n2)OC(CC(F)(F)F)CN(C)C3)ccc1-c1cnc(C)o1 (single isomer, unassigned) [Example 63, N-[6-Methoxy-5-(2-methyloxazol-5-yl)-2-pyridyl]-4-methyl-2-(2,2,2-trifluoroethyl)-3,5-dihydro-2H-pyrido[3,2-f][1,4]oxazepin-8-amine] | 3 nM |  |
| COc1nc(Nc2ccc3c(n2)O[C@H](c2ccccc2)CN(C)C3)ccc1-c1ccc(=O)n(C)c1 [Example 45, (R)-5-(2-Methoxy-6-(4-methyl-2-phenyl-2,3,4,5-tetrahydropyrido[3,2-f][1,4]oxazepin-8-ylamino)pyridin-3-yl)-1-methylpyridin-2(1H)-one] | 38 nM |  |
| COc1nc(Nc2ccc3c(n2)OC(C2CC2)CN(C)C3C)ccc1-c1cnn(C)c1 (single isomer, unassigned) [Example 19, 2-Cyclopropyl-N-(6-methoxy-5-(1-methyl-1H-pyrazol-4-yl)pyridin-2-yl)-4,5-dimethyl-2,3,4,5-tetrahydropyrido[3,2-f][1,4]oxazepin-8-amine] |  | 124 nM |
| COc1nc(Nc2cc(C)c3c(n2)OC(c2nc(C)cs2)CN(C)C3)ccc1-c1cnn(C)c1 (single isomer, unassigned) [Example 21, N-(6-Methoxy-5-(1-methyl-1H-pyrazol-4-yl)pyridin-2-yl)-4,6-dimethyl-2-(4-methylthiazol-2-yl)-2,3,4,5-tetrahydropyrido[3,2-f][1,4]oxazepin-8-amine] |  | 179 nM |

Results, then the compound that gave them:

| IC50 [1] | IC50 (HEK cells expressing APPswe) | SMILES |
| --- | --- | --- |
|  | 4 nM | COc1nc(Nc2ccc3c(n2)OC(CC(F)(F)F)CN(C)C3)ccc1-c1cnc(C)o1 (single isomer, unassigned) [Example 64, N-[6-Methoxy-5-(2-methyloxazol-5-yl)-2-pyridyl]-4-methyl-2-(2,2,2-trifluoroethyl)-3,5-dihydro-2H-pyrido[3,2-f][1,4]oxazepin-8-amine] |
|  | 374 nM | COc1nc(Nc2ccc3c(n2)OC(CC(F)(F)F)CN(C)C3)ccc1-c1ccc(=O)n(C)c1 (single isomer, unassigned) [Example 44, 5-(2-Methoxy-6-(4-methyl-2-(2,2,2-trifluoroethyl)-2,3,4,5-tetrahydropyrido[3,2-f][1,4]oxazepin-8-ylamino)pyridin-3-yl)-1-methylpyridin-2(1H)-one] |
|  | 226 nM | COc1nc(Nc2ccc3c(n2)OC(c2nc(C)cs2)CN(C)C3)ccc1-c1cnn(C)c1 (single isomer, unassigned; (+)) [Example 10, (+)-N-(6-Methoxy-5-(1-methyl-1H-pyrazol-4-yl)pyridin-2-yl)-4-methyl-2-(4-methylthiazol-2-yl)-2,3,4,5-tetrahydropyrido[3,2-f][1,4]oxazepin-8-amine] |
